ChEMBL document CHEMBL1201862, “PubChem BioAssay data set” (2004)
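Exposure lasted 48 hours, with cells grown in 96-well plates and compounds tested at five concentrations. GI50 marks 50% less growth.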 Active and inactive are the calls of the source. Cut-off read from the data, not from the text of the source: active = GI50 up to about 1.1 µM and inactive = higher.

Tests used:
Assay in all cases: NCI tumour cell line growth inhibition, 48 h
[1] = test system: UACC-62
[2] = test system: SK-OV-3
[3] = test system: MDA-MB-435
[4] = test system: NCI-H226
[5] = test system: NCI/ADR-RES
[6] = test system: OVCAR-8
[7] = test system: M14
[8] = test system: RPMI-8226
[9] = test system: HT-29
[10] = test system: NCI-H460
[11] = test system: CCRF-CEM
[12] = test system: DU-145
[13] = test system: CAKI-1
[14] = test system: EKVX
[15] = test system: RXF 393
[16] = test system: MOLT-4
[17] = test system: OVCAR-3
[18] = test system: K562
[19] = test system: HOP-62
[20] = test system: SK-MEL-2
[21] = test system: Malme-3M
[22] = test system: SW-620
[23] = test system: OVCAR-4
[24] = test system: A498
[25] = test system: MCF7
[26] = test system: SF-295
[27] = test system: KM12
[28] = test system: UO-31
[29] = test system: U-251
[30] = test system: UACC-257
[31] = test system: COLO 205
[32] = test system: SN12C
[33] = test system: SK-MEL-5
[34] = test system: LOX IMVI
[35] = test system: OVCAR-5
[36] = test system: MDA-MB-231
[37] = test system: SK-MEL-28
[38] = test system: Hs-578T
[39] = test system: SF-268
[40] = test system: ACHN
[41] = test system: HCT-116
[42] = test system: NCI-H23
[43] = test system: HOP-92
[44] = test system: SNB-75
[45] = test system: SF-539
[46] = test system: HCT-15
[47] = test system: 786-0
[48] = test system: PC-3
[49] = test system: IGROV-1
[50] = test system: MDA-N
[51] = test system: SR
[52] = test system: A549
[53] = test system: TK-10
[54] = test system: HL-60
[55] = test system: SNB-19
[56] = test system: NCI-H522
[57] = test system: HCC 2998
[58] = test system: T47D
[59] = test system: BT-549

COC1(C)OC[C@@]2(C)OC(C)C1(C)C2O[Si](C(C)C)(C(C)C)C(C)C (some centres not stated)
GI50 [1]: 31 µM (inactive) | GI50 [2]: 24.4 µM (inactive) | GI50 [3]: 28.7 µM (inactive) | GI50 [4]: 19.5 µM (inactive) | GI50 [5]: 22.1 µM (inactive) | GI50 [6]: 36.8 µM (inactive) | GI50 [7]: 37.6 µM (inactive) | GI50 [8]: 28.2 µM (inactive) | GI50 [9]: 28.7 µM (inactive) | GI50 [10]: 23.7 µM (inactive) | GI50 [11]: 25.1 µM (inactive) | GI50 [12]: 38.7 µM (inactive) | GI50 [13]: 28.6 µM (inactive) | GI50 [14]: 24.9 µM (inactive) | GI50 [15]: 27 µM (inactive) | GI50 [16]: 21.2 µM (inactive) | GI50 [17]: 20.9 µM (inactive) | GI50 [18]: 26.5 µM (inactive) | GI50 [19]: 28.6 µM (inactive) | GI50 [20]: 21 µM (inactive) | GI50 [21]: 18 µM (inactive) | GI50 [22]: 33.5 µM (inactive) | GI50 [23]: 30.3 µM (inactive) | GI50 [24]: 66.8 µM (inactive) | GI50 [25]: 18.4 µM (inactive) | GI50 [26]: 19.9 µM (inactive) | GI50 [27]: 31.8 µM (inactive) | GI50 [28]: 45 µM (inactive) | GI50 [29]: 28.5 µM (inactive) | GI50 [30]: 19.9 µM (inactive) | GI50 [31]: 17.8 µM (inactive) | GI50 [32]: 23 µM (inactive) | GI50 [33]: 20.9 µM (inactive) | GI50 [34]: 20.7 µM (inactive) | GI50 [35]: 26.6 µM (inactive) | GI50 [36]: 26.4 µM (inactive) | GI50 [37]: 38.4 µM (inactive) | GI50 [38]: 22.2 µM (inactive) | GI50 [39]: 31.8 µM (inactive) | GI50 [40]: 25.2 µM (inactive) | GI50 [41]: 29.2 µM (inactive) | GI50 [42]: 25.7 µM (inactive) | GI50 [43]: 24.9 µM (inactive) | GI50 [44]: 26.9 µM (inactive) | GI50 [45]: 33.1 µM (inactive) | GI50 [46]: 22.4 µM | GI50 [47]: 43.2 µM (inactive) | GI50 [48]: 31.2 µM (inactive) | GI50 [49]: 28.7 µM (inactive) | GI50 [50]: 31.4 µM (inactive) | GI50 [51]: 27.6 µM (inactive) | GI50 [52]: 32.2 µM (inactive) | GI50 [53]: 25.4 µM (inactive) | GI50 [54]: 17.5 µM (inactive) | GI50 [55]: 48.9 µM (inactive) | GI50 [56]: 27.9 µM (inactive) | GI50 [57]: 20.1 µM (inactive) | GI50 [58]: 27.6 µM (inactive)

COC(=O)CCC(=O)NC1c2cccc3cccc(c23)Cn2c(=O)n(C)c(=O)n21 (configuration not stated)
GI50 [1]: > 100 µM (inactive) | GI50 [2]: > 100 µM (inactive) | GI50 [3]: > 100 µM (inactive) | GI50 [5]: > 100 µM (inactive) | GI50 [6]: > 100 µM (inactive) | GI50 [7]: > 100 µM (inactive) | GI50 [8]: > 100 µM (inactive) | GI50 [9]: > 100 µM (inactive) | GI50 [10]: > 100 µM (inactive) | GI50 [11]: > 100 µM (inactive) | GI50 [12]: > 100 µM (inactive) | GI50 [13]: > 100 µM (inactive) | GI50 [14]: > 100 µM (inactive) | GI50 [15]: > 100 µM (inactive) | GI50 [16]: > 100 µM (inactive) | GI50 [17]: > 100 µM (inactive) | GI50 [18]: > 100 µM (inactive) | GI50 [19]: > 100 µM (inactive) | GI50 [59]: > 100 µM (inactive) | GI50 [20]: > 100 µM (inactive) | GI50 [21]: > 100 µM (inactive) | GI50 [22]: > 100 µM (inactive) | GI50 [23]: > 100 µM (inactive) | GI50 [25]: > 100 µM (inactive) | GI50 [26]: > 100 µM (inactive) | GI50 [27]: > 100 µM (inactive) | GI50 [28]: > 100 µM (inactive) | GI50 [29]: > 100 µM (inactive) | GI50 [30]: > 100 µM (inactive) | GI50 [31]: > 100 µM (inactive) | GI50 [32]: > 100 µM (inactive) | GI50 [33]: > 100 µM (inactive) | GI50 [34]: > 100 µM (inactive) | GI50 [35]: > 100 µM (inactive) | GI50 [36]: > 100 µM (inactive) | GI50 [37]: > 100 µM (inactive) | GI50 [38]: > 100 µM (inactive) | GI50 [39]: > 100 µM (inactive) | GI50 [40]: > 100 µM (inactive) | GI50 [41]: > 100 µM (inactive) | GI50 [42]: > 100 µM (inactive) | GI50 [43]: > 100 µM (inactive) | GI50 [44]: > 100 µM (inactive) | GI50 [45]: > 100 µM (inactive) | GI50 [46]: > 100 µM | GI50 [47]: > 100 µM (inactive) | GI50 [48]: > 100 µM (inactive) | GI50 [49]: > 100 µM (inactive) | GI50 [51]: > 100 µM (inactive) | GI50 [52]: > 100 µM (inactive) | GI50 [53]: > 100 µM (inactive) | GI50 [55]: > 100 µM (inactive) | GI50 [56]: > 100 µM (inactive) | GI50 [57]: > 100 µM (inactive)
